Measurements published in US20250312352A1, “GLP-1R MODULATING COMPOUNDS” (Gilead Sciences, Inc., priority 2021, published 2025).

Target: T1, GLP-1R (Homo sapiens, UniProt P43220)
T1 construct: host or cells: CHO cells
Experiment: GLP-1R activation cAMP assay (Assay 1 or Assay 2)
Type: cell-based
Conditions: cAMP increase in CHO cells stably expressing GLP-1R; compounds run on one of the two cAMP assays
Outline: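 EC50 values come from a sigmoidal fit of HTRF-detected cAMP rise versus log agonist concentration. GLP-1R-expressing CHO cells, equilibrated 1 h at 37 °C in HBSS with HEPES and BSA, received a 10-point compound dose series for 30 min before detection.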

T1 sequence (P43220 24-463): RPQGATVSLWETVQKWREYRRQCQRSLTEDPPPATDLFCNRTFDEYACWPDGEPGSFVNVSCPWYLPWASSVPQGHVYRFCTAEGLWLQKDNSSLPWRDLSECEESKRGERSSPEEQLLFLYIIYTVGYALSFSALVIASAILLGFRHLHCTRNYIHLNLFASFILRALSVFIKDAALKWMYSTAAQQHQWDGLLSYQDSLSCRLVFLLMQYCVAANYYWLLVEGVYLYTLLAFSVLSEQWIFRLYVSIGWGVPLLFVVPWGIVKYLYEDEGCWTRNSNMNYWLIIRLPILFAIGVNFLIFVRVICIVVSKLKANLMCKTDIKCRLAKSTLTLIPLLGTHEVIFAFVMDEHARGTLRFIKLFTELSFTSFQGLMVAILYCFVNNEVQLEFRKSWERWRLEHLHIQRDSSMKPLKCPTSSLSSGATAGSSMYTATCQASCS

| Structure (SMILES) | EC50 |
| --- | --- |
| N#Cc1ccc(COc2cccc(-c3cc(F)c(Cc4nc5ccc(C(=O)O)cc5n4C[C@@H]4CCO4)cc3F)n2)s1 [Example 126, (S)-2-(4-(6-((5-cyanothiophen-2-yl)methoxy)pyridin-2-yl)-2,5-difluorobenzyl)-1-(oxetan-2-ylmethyl)-1H-benzo[d]imidazole-6-carboxylic acid] | 0.31 nM |
| CN(C)C(=O)c1ccc(COc2cccc(-c3cc(F)c(Cc4nc5ccc(C(=O)O)cc5n4C[C@@H]4CCO4)cc3F)n2)cn1 [Example 44, (S)-2-(4-(6-((6-(dimethylcarbamoyl)pyridin-3-yl)methoxy)pyridin-2-yl)-2,5-difluorobenzyl)-1-(oxetan-2-ylmethyl)-1H-benzo[d]imidazole-6-carboxylic acid] | 75.3 nM |
| N#CC1(NC(=O)c2cc(Cl)c(COc3cccc(-c4cc(F)c(Cc5nc6ccc(C(=O)O)cc6n5C[C@@H]5CCO5)cc4F)n3)cn2)COC1 [Example 187, (S)-2-(4-(6-((4-chloro-6-((3-cyanooxetan-3-yl)carbamoyl)pyridin-3-yl)methoxy)pyridin-2-yl)-2,5-difluorobenzyl)-1-(oxetan-2-ylmethyl)-1H-benzo[d]imidazole-6-carboxylic acid] | 0.12 nM |
| O=C(O)c1ccc2nc(Cc3cc(F)c(-c4cccc(OCc5cn(C6CC6)nn5)n4)cc3F)n(C[C@@H]3CCO3)c2c1 [Example 210, 2-[[4-[6-[(1-cyclopropyltriazol-4-yl)methoxy]-2-pyridyl]-2,5-difluoro-phenyl]methyl]-3-[[(2S)-oxetan-2-yl]methyl]benzimidazole-5-carboxylic acid] | 15.7 nM |
| C[C@H](C#N)NC(=O)c1cc(Cl)c(COc2cccc(-c3cc(F)c(Cc4nc5ccc(C(=O)O)cc5n4C[C@@H]4CCO4)cc3F)n2)cn1 [Example 200, 2-(4-(6-((4-chloro-6-(((R)-1-cyanoethyl)carbamoyl)pyridin-3-yl)methoxy)pyridin-2-yl)-2,5-difluorobenzyl)-1-(((S)-oxetan-2-yl)methyl)-1H-benzo[d]imidazole-6-carboxylic acid] | 0.24 nM |
| Cn1cc(C#Cc2ccc(COc3cccc(-c4cc(F)c(Cc5nc6ccc(C(=O)O)cc6n5C[C@@H]5CCO5)cc4F)n3)cn2)cn1 [Example 147, (S)-2-(2,5-difluoro-4-(6-((6-((1-methyl-1H-pyrazol-4-yl)ethynyl)pyridin-3-yl)methoxy)pyridin-2-yl)benzyl)-1-(oxetan-2-ylmethyl)-1H-benzo[d]imidazole-6-carboxylic acid] | 0.6 nM |
| Cn1nncc1C#Cc1ccc(COc2cccc(-c3cc(F)c(Cc4nc5ccc(C(=O)O)cc5n4C[C@@H]4CCO4)cc3F)n2)c(F)n1 [Example 278, (S)-2-(2,5-difluoro-4-(6-((2-fluoro-6-((1-methyl-1H-1,2,3-triazol-5-yl)ethynyl)pyridin-3-yl)methoxy)pyridin-2-yl)benzyl)-1-(oxetan-2-ylmethyl)-1H-benzo[d]imidazole-6-carboxylic acid] | 0.617 nM |
| CC(C)(C#N)NC(=O)c1cc(Cl)c(COc2cccc(-c3cc(F)c(Cc4nc5ccc(C(=O)O)cc5n4C[C@@H]4CCO4)cc3F)n2)cn1 [Example 199, (S)-2-(4-(6-((4-chloro-6-((2-cyanopropan-2-yl)carbamoyl)pyridin-3-yl)methoxy)pyridin-2-yl)-2,5-difluorobenzyl)-1-(oxetan-2-ylmethyl)-1H-benzo[d]imidazole-6-carboxylic acid] | 0.53 nM |
| Cc1nc(COc2cccc(-c3cc(F)c(Cc4nc5ccc(C(=O)O)cc5n4C[C@@H]4CCO4)cc3F)n2)cn1C(F)F [Example 180, (S)-2-(4-(6-((1-(difluoromethyl)-2-methyl-1H-imidazol-4-yl)methoxy)pyridin-2-yl)-2,5-difluorobenzyl)-1-(oxetan-2-ylmethyl)-1H-benzo[d]imidazole-6-carboxylic acid] | 28 nM |
| Cc1cc(Cc2nc3c(F)cc(C(=O)O)cc3n2C[C@@H]2CCO2)c(F)cc1-c1cccc(OCc2cnc(-c3cnn(C4CC4)c3)cc2Cl)n1 [Example 163, (S)-2-(4-(6-((4-chloro-6-(1-cyclopropyl-1H-pyrazol-4-yl)pyridin-3-yl)methoxy)pyridin-2-yl)-2-fluoro-5-methylbenzyl)-4-fluoro-1-(oxetan-2-ylmethyl)-1H-benzo[d]imidazole-6-carboxylic acid] | 0.7 nM |

Continued, values first:

| EC50 | Structure (SMILES) |
| --- | --- |
| 0.058 nM | CC(F)(F)c1cnc(COc2nc(-c3cc(F)c(Cc4nc5ccc(C(=O)O)cc5n4[C@@H]4COCC4(C)C)cc3F)ccc2F)s1 [Example 340, (S)-2-(4-(6-((5-(1,1-difluoroethyl)thiazol-2-yl)methoxy)-5-fluoropyridin-2-yl)-2,5-difluorobenzyl)-1-(4,4-dimethyltetrahydrofuran-3-yl)-1H-benzo[d]imidazole-6-carboxylic acid] |
| 0.235 nM | COc1nnc(COc2nc(-c3cc(F)c(Cc4nc5c(Cl)cc(C(=O)O)cc5n4[C@@H]4COCC4(C)C)cc3F)ccc2F)s1 [Example 367, (S)-4-chloro-2-(2,5-difluoro-4-(5-fluoro-6-((5-methoxy-1,3,4-thiadiazol-2-yl)methoxy)pyridin-2-yl)benzyl)-1-(4,4-dimethyltetrahydrofuran-3-yl)-1H-benzo[d]imidazole-6-carboxylic acid] |
| 0.101 nM | O=C(O)c1cc(Cl)c2nc(Cc3cc(F)c(-c4cccc(OCc5ncc(C(F)(F)F)s5)n4)cc3F)n(C[C@@H]3CCO3)c2c1 [Example 445, (S)-4-chloro-2-(2,5-difluoro-4-(6-((5-(trifluoromethyl)thiazol-2-yl)methoxy)pyridin-2-yl)benzyl)-1-(oxetan-2-ylmethyl)-1H-benzo[d]imidazole-6-carboxylic acid] |
| 0.678 nM | CCOc1nnc(COc2cccc(-c3cc(F)c(Cc4nc5ccc(C(=O)O)c(F)c5n4CCOC)cc3F)n2)s1 [Example 396, 2-(4-(6-((5-ethoxy-1,3,4-thiadiazol-2-yl)methoxy)pyridin-2-yl)-2,5-difluorobenzyl)-7-fluoro-1-(2-methoxyethyl)-1H-benzo[d]imidazole-6-carboxylic acid] |
| 0.315 nM | COc1nnc(COc2cccc(-c3cc(F)c(Cc4nc5c(F)cc(C(=O)O)cc5n4CC4(CF)CC4)cc3F)n2)s1 [Example 411, 2-(2,5-difluoro-4-(6-((5-methoxy-1,3,4-thiadiazol-2-yl)methoxy)pyridin-2-yl)benzyl)-4-fluoro-1-((1-(fluoromethyl)cyclopropyl)methyl)-1H-benzo[d]imidazole-6-carboxylic acid] |
| 0.01 nM | CNC(=O)c1cc(Cl)c(COc2cccc(-c3ccc(Cc4nc5ccc(C(=O)O)cc5n4[C@@H]4COCC4(C)C)c(F)c3)n2)cn1 [Example 399, (S)-2-(4-(6-((4-chloro-6-(methylcarbamoyl)pyridin-3-yl)methoxy)pyridin-2-yl)-2-fluorobenzyl)-1-(4,4-dimethyltetrahydrofuran-3-yl)-1H-benzo[d]imidazole-6-carboxylic acid] |
| 0.281 nM | O=C(O)c1ccc2nc(Cc3cc(F)c(-c4cccc(OCc5ncc(C#CC6(O)CCC6)s5)n4)cc3F)n(C[C@@H]3CCO3)c2c1 [Example 323, (S)-2-(2,5-difluoro-4-(6-((5-((1-hydroxycyclobutyl)ethynyl)thiazol-2-yl)methoxy)pyridin-2-yl)benzyl)-1-(oxetan-2-ylmethyl)-1H-benzo[d]imidazole-6-carboxylic acid] |
